Laboratory results from the supplement of paper PMC10307832.

Columns and labels:
Experiment in all cases: relative viability (nuclei count vs DMSO), 5 days (fraction); higher = more cells survive
[1] = compound: C1=CC=C(C(=C1)C2=CC=C(C=C2)C3=CSC4=C3C(=C(C(=O)N4)C#N)O)O + CC(=O)c1c(C)c2cnc(Nc3ccc(N4CCNCC4)cn3)nc2n(C2CCCC2)c1=O [Palbociclib] (partner 0.5 µM)
Summary of the method: (§1)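 The day after seeding in 1536-well plates, lung cancer cell lines were treated by pin tool with a single drug, or with a fixed anchor-drug dose together with five library-drug doses (not always all listed) in √10 steps. After 5 days, a combined fix-and-stain solution (final 0.05% Triton X-100, 1% formaldehyde, 1 ug/ml Hoechst) was added. Nuclei counted on 4× images gave relative viability as treated counts over vehicle counts, reported as the median of duplicate plates.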

[2] = compound: O=C(CCCCCCNC(=O)c1cnc(N(c2ccccc2)c2ccccc2)nc1)NO [Ricolinostat] + COc1cccc2cc(-c3nc([C@H]4CC[C@H](C(=O)O)CC4)n4ncnc(N)c34)[nH]c12 [OSI-027] (partner 0.5 µM)
Summary of the method: as §1

[3] = compound: CC1=CN2C(=O)C=C(N=C2C(=C1)C(C)NC3=CC=CC=C3)N4CCOCC4 [TGX 221] + C[C@]1(O)C[C@@H](c2nc(-c3ccc4ccc(-c5ccccc5)nc4c3)c3c(N)nccn32)C1 [Linsitinib] (partner 1 µM)
Summary of the method: as §1

[4] = compound: C1=CC=C(C(=C1)C2=CC=C(C=C2)C3=CSC4=C3C(=C(C(=O)N4)C#N)O)O + CC(C)C[C@H](NC(=O)[C@H](Cc1ccccc1)NC(=O)c1cnccn1)B(O)O [Bortezomib] (partner 0.002 µM)
Summary of the method: as §1

Cell Line | relative viability ([1]; first compound 0.253 µM) | relative viability ([1]; first compound 0.8 µM) | relative viability ([1]; first compound 2.53 µM) | relative viability ([1]; first compound 8 µM) | relative viability ([2]; first compound 0.08 µM) | relative viability ([2]; first compound 0.253 µM) | relative viability ([2]; first compound 0.8 µM) | relative viability ([2]; first compound 2.53 µM) | relative viability ([1]; first compound 0.08 µM) | relative viability ([3]; first compound 0.08 µM) | relative viability ([3]; first compound 0.253 µM) | relative viability ([3]; first compound 0.8 µM) | relative viability ([3]; first compound 2.53 µM) | relative viability ([3]; first compound 8 µM) | relative viability ([4]; first compound 0.08 µM) | relative viability ([4]; first compound 0.253 µM) | relative viability ([4]; first compound 0.8 µM) | relative viability ([4]; first compound 2.53 µM) | relative viability ([4]; first compound 8 µM)
NCI-H1648 | 0.282 | 0.319 | 0.261 | 0.274 | 0.28 | 0.281 | 0.249 | 0.259 |  |  |  |  |  |  |  |  |  |  | 
NCI-H1755 | 0.482 | 0.418 | 0.42 | 0.48 | 0.538 | 0.791 | 0.717 | 0.62 | 0.447 | 0.956 | 0.935 | 0.835 | 0.629 | 0.557 | 0.954 | 1.04 | 0.872 | 0.978 | 0.814
PC-3 [JPC-3] | 0.599 | 0.535 | 0.601 | 0.577 |  | 0.768 | 0.708 | 0.491 | 0.496 | 0.963 | 0.973 | 0.997 | 0.922 | 0.918 | 0.762 | 0.817 | 0.758 | 0.95 | 0.899
HCC-44 | 1.05 | 0.995 | 0.979 | 0.964 | 0.373 | 0.587 | 0.4 | 0.27 | 1.08 | 0.646 | 0.53 | 0.62 | 0.464 | 0.359 | 0.899 | 0.918 | 0.909 | 0.92 | 0.976
CAL-12T | 0.62 | 0.455 | 0.405 | 0.437 | 0.412 | 0.717 | 0.617 | 0.715 | 0.429 | 0.803 | 0.72 | 0.758 | 0.513 | 0.626 |  | 0.898 | 0.911 | 0.936 | 0.804
ChaGo-K-1 | 0.913 | 1.01 | 1.01 | 0.836 | 0.656 | 0.606 | 0.539 | 0.471 | 0.839 |  |  |  |  |  | 0.658 | 0.955 | 0.957 | 1.21 | 0.954
NCI-H2126 | 0.347 | 0.337 | 0.333 | 0.394 | 0.489 | 0.847 | 0.658 | 0.692 | 0.377 | 0.632 | 0.604 | 0.579 | 0.576 | 0.593 | 1.06 | 1.13 | 1.18 | 1.21 | 1.22
HCC-827 | 0.518 | 0.479 | 0.475 | 0.524 | 0.687 | 0.83 | 0.721 | 0.841 | 0.492 | 0.999 | 1.05 | 0.94 | 0.986 | 0.886 | 0.967 | 1.05 | 1 | 1.08 | 1.07
LCLC-97TM1 | 0.233 | 0.268 | 0.26 | 0.204 | 0.271 | 0.524 | 0.541 | 0.27 | 0.24 | 0.145 | 0.187 | 0.199 | 0.167 | 0.188 | 0.344 | 0.44 |  | 0.572 | 0.343
HCC-15 | 0.867 | 0.766 | 0.897 | 0.617 | 0.501 | 0.64 | 0.624 | 0.592 | 0.786 | 0.893 | 0.86 | 0.878 | 0.845 | 0.827 | 0.816 | 1.14 | 1.02 | 1.16 | 1.14
NCI-H727 | 0.703 | 0.571 | 0.666 | 0.591 | 0.389 | 0.671 | 0.551 | 0.657 | 0.711 | 0.406 | 0.29 | 0.264 | 0.269 | 0.403 | 0.643 | 1.18 | 0.986 | 0.714 | 0.747
NCI-H2170 | 0.407 | 0.404 | 0.434 | 0.329 | 0.656 | 0.718 | 0.725 | 0.891 | 0.349 |  |  |  |  |  |  |  |  |  | 
201T | 0.361 | 0.362 | 0.38 | 0.387 | 0.631 | 0.707 | 0.7 | 0.92 | 0.381 |  | 0.957 | 0.995 | 0.909 | 0.824 | 1.09 | 1.13 | 1.14 | 1.09 | 1.13
NCI-H838 | 0.231 | 0.193 | 0.201 | 0.186 | 0.302 | 0.383 | 0.457 | 0.519 | 0.22 | 0.917 | 0.819 | 0.841 | 0.836 | 0.618 | 0.776 | 0.816 | 1.03 | 0.715 | 0.634
NCI-H1915 | 0.558 | 0.554 | 0.756 | 0.515 | 0.525 | 0.65 | 0.623 | 0.421 | 0.587 | 1.02 | 1.12 | 1.16 | 1.11 | 1.04 | 0.768 | 0.993 | 1.06 | 1.11 | 0.831
LCLC-103H | 0.407 | 0.451 | 0.491 | 0.449 | 0.363 | 0.447 | 0.48 | 0.444 | 0.445 | 1.11 | 1.12 | 0.93 | 0.846 | 1.2 | 0.99 | 1.13 | 1.05 | 1.13 | 1.15
SK-LU-1 | 0.37 | 0.378 | 0.389 | 0.355 | 0.321 | 0.431 | 0.353 | 0.269 | 0.35 | 0.96 | 0.904 | 0.922 | 1.06 | 0.858 |  | 0.83 | 1.12 | 1.36 | 1.16
NCI-H2347 | 0.429 | 0.361 | 0.442 | 0.423 | 0.293 | 0.451 | 0.364 | 0.319 | 0.46 | 0.931 | 0.972 | 0.936 | 0.885 | 0.786 | 0.913 | 1.24 | 1.23 | 1.02 | 0.869
